pIC50: −log10 of the molar value.
What was measured:
HIV-1 = assay: Anti-viral activity: syncytium formation (Sup T1) or reverse transcriptase assay (H9); type: cell-based; settings: Human immunodeficiency virus 1; concentration that inhibits the proliferation of HIV by 50%; H9 and Sup T1 cell lines, 200 TCID50 HIV-1; cell line not given; read-out: IC
Experimental: The anti-viral activity of the compounds of the present invention was determined by measuring the concentration of the compounds that inhibits the proliferation of HIV by 50%(IC50) through a survey for syncytium formation or reverse transcriptase assay.
1 x 10^5 cells of each of H9(ATCC HTB 176) and Sup T1 cell lines were added to the wells of a 24-well microtiter plate and various concentrations of the compounds of the present invention were added thereto. 200 TCID50(200-fold of 50% tissue culture infection dose) of HIV-1 inoculum and rpmi-1640 medium(Sigma Chemical Co., U.S.A) were added successively to the wells and the plate was incubated at 37°C. In case of Sup T1, the number of syncytium formed was investigated after 3 to 9 days. IC50 of each compound was determined by measuring the concentration of inhibitor that can reduce the number of syncytium by 50% compared with those formed in the same condition without the inhibitor.
In case of H9, three-quarters(3/4) of the culture medium in volume was refreshed every 3 days; and after 9 days, 6ml of the culture fluid was taken and 2.5ml of 30% polyethyleneglycol(PEG, M.W. 6000-8000) and 0.4M NaCl were added thereto. The resulting solution was allowed to stand at 0°C overnight to precipitate virus particles. The solution was centrifuged at 2000rpm for 45 minutes, the supernatant was discarded therefrom and the precipitate was diluted with 20µl of a reverse transcriptase suspension buffer(50mM tris-HCl, pH 7.5, 1mM dithiothreitol, 20% glycerol, 0.25M KCl and 0.25% Triton X-100). The resulting suspension was stored in an Effendorf tube at -70°C until used. A procedure of freezing said virus suspension for 2 minutes in dry ice and thawing same at 37°C for 2 minutes was repeated three times and the resulting suspension was centrifuged at 4°C. The resulting supernatant was used in carrying out the reverse transcriptase assay.
10µl of the said viral suspension was added to a solution of: 10µl of buffer solution(250mM tris-HCl, pH 7.5, 37.5mM MgCl2, 0.25% triton X-100), 1.2µl of 200mM dithiothreitol, 5µl of 100µM oligo(dT)-poly(A)(Boeringer Manheim, 12-18 oligomer), 1µl(1µCi) of ^3H-TTP(Thymidinetri-phosphate) and 23.6µl of water; and the resulting mixture was placed at 37°C. After 1 hour, the mixture was poured onto a WHATMAN DEB1 filter and the filter was washed three times with 5ml of 2 x SSC buffer solution(17.53g of sodium chloride, 8.82g of sodium citrate, pH 7.0, 1 liter of water) for about 10 minutes each time and twice with 95% methanol for 10 seconds. The filter was put onto aluminium foil and dried with an infrared lamp. The amount of radioactivity was counted using a liquid scintillation counter.

in vitro = settings: human, h9 or sup t1 cells
Experimental: To determine the cytotoxicity of the compounds of the present invention, 0.1µM to 100µM of the novel compounds were added to H9 cell or Sup T1 cell and the mixture was cultured on a rpmi-1640 medium at 37°C. The medium was refreshed every 3 days and the extent of cell proliferation was observed using Hemacytometer according to the trypan blue dye exclusion technique which is well known in the art. CT50(i.e., concentration that causes death of cells by 50%) was determined. As control compounds, azidothymidine(AZT, Burrows-Wellcome Co.) and Ro-31 8959(Hoffmann-La Roche AG) were used. […]

HIV-1 protease = target: T1, HIV-1 protease (Human immunodeficiency virus type 1 group M subtype B, UniProt P04585); assay: Assay for inhibitory effect on HIV protease (irreversible inhibition kinetics, HPLC readout); type: biochemical; settings: second order rate constant; 2.6nM HIV-1 protease, pH 5.5; KINSIM/FITSIM fit; exact values hard to calculate above 10^9
T1 construct: addition of 2.6nM of HIV-1 protease
Experimental: The inhibitory effect on HIV protease of the compounds of the present invention was determined by the following method.
To a buffer solution comprising 50mM sodium acetate, pH 5.5, 1mM dithiothreitol (DTT), 1mM ethylenediaminetetra-acetate (EDTA), 0.75M ammonium sulfate, 0.2M sodium chloride and 0.1% NP40(NONIGET P-40; Sigma Chemical Co., U.S.A.), were added various concentrations of a compound selected from the compound obtained in Examples 1 to 9 to prepare a preincubation solution. Inhibition reaction was started with the addition of 2.6nM of HIV-1 protease to the preincubation solution. Each 10µl of the reaction solution was taken at a given time interval and added to 80µl of assay solution containing 100µM of reaction substrate in the same buffer solution as the above to assay for the residual enzyme activity. In this context, an oligopeptide(KM=20µM) consisting of 11 amino acids, i.e., Ser-Ile-Ala-Glu-(p-NO2)-Phe-Leu-Val-Arg-Ala-Lys-His, was used as a reaction substrate, which oligopeptide was to be cleaved in two by the breakage of amide bond between (P-NO2)-Phe and Leu upon the attack of HIV protease. The reaction rate was determined by subjecting the substrate before the reaction and the product after the reaction to HPLC separation and then measuring the relative amount of the product, using the strong absorbance of (p-NO2)-Phe at 280nm. The amounts of reduction in enzyme activity according to the elasped time were measured and the natural logarithmic values(ln) of the measured amounts were plotted against time to obtain a linear graph and kobs was calculated from the slope of the linear graph.
The inhibition constant was calculated according to the following equation: (1)/(kobs)=(1)/(kina)+(KI)/(kina)(1)/([I]) [formula] wherein: kobs is a rate constant indicating the rate of reduction in enzyme activity according to the elapsed time under the presence of a given concentration of inhibitor, kina is a rate constant indicating the rate of chemical reaction forming covalent bond between an enzyme and an inhibitor in Michaelis-Menten complex, KI is an inhibition constant indicating the dissociation rate of Michaelis-Menten complex into an enzyme and an inhibitor, and [I] means the inhibitor concentration.
The above equation is applicable to an experiment carried out under the condition in which the concentration of inhibitor is fear higher than that of enzyme (Steady State Kinetic). […] The inhibition constants KI and kina and second order rate constant kina/KI were obtained by inputting the value of [E]/([E]+[EI]+[EI']) [formula] into KINSIM/FITSIM program.

| Compound | pIC50 (HIV-1) | CC50 (in vitro) [nM] | kinact/KI (HIV-1 protease) [M⁻¹ s⁻¹] |
| --- | --- | --- | --- |
| Cc1cn([C@H]2C[C@H](N=[N+]=[N-])[C@@H](CO)O2)c(=O)[nH]c1=O [AZT, azidothymidine, reference compound] | 7.92 | > 10000 |  |
| CC(C)(C)NS(=O)(=O)CC[C@@H]1O[C@@H]1[C@H](Cc1ccccc1)NC(=O)[C@@H](NC(=O)OCc1ccccc1)C(C)(C)S(C)(=O)=O [Ex. 1, N-t-butyl-5S-[N-benzyloxycarbonyl-β-methanesulfonyl-L-valinyl]amino-(4R,3S)-epoxy-6-phenylhexanesulfonamide] | 7.60 | > 10000 | 1.67e+07 to 1.67e+08 |
| CC(C)(C)NS(=O)(=O)CC[C@@H]1O[C@@H]1[C@H](Cc1ccccc1)NC(=O)[C@@H](NC(=O)c1ccc2ccccc2n1)C(C)(C)S(C)(=O)=O [Ex. 2, N-t-butyl-5S-[N-(2-quinolinecarbonyl)-β-methanesulfonyl-L-valinyl]amino-(4R,3S)-epoxy-6-phenylhexanesulfonamide] | 7.52 | > 10000 | 1.67e+07 to 1.67e+08 |
| CC(C)(C)NS(=O)(=O)CC[C@@H]1O[C@@H]1[C@H](Cc1ccccc1)NC(=O)[C@H](CC(N)=O)NC(=O)c1ccc2ccccc2n1 [Ex. 3] | 8.00 | > 10000 | 1.67e+07 to 1.67e+08 |
| CN(C(C)(C)C)S(=O)(=O)CC[C@@H]1O[C@@H]1[C@H](Cc1ccccc1)NC(=O)[C@@H](NC(=O)OCc1ccccc1)C(C)(C)S(C)(=O)=O [Ex. 4, N-t-butyl-N-methyl-5S-[N-benzyloxycarbonyl-β-methanesulfonyl-L-valinyl]amino-(4R,3S)-epoxy-6-phenylhexanesulfonamide] | 9.00 | > 10000 | 1.67e+07 to 1.67e+08 |
| CN(C(C)(C)C)S(=O)(=O)CC[C@@H]1O[C@@H]1[C@H](Cc1ccccc1)NC(=O)[C@@H](NC(=O)COc1cccc2cnccc12)C(C)(C)S(C)(=O)=O [Ex. 5, N-t-butyl-N-methyl-5S-(N-(5-isoquinolyloxymethylcarbonyl)-β-methanesulfonyl-L-valinyl]amino-(4R,3S)-epoxy-6-phenylhexanesulfonamide] | 8.30 | > 10000 | 1.67e+07 to 1.67e+08 |
| CCN(c1ccccc1)S(=O)(=O)CC[C@@H]1O[C@@H]1[C@H](Cc1ccccc1)NC(=O)[C@@H](NC(=O)c1ccc2ccccc2n1)C(C)(C)S(C)(=O)=O [Ex. 6, N-ethyl-N-phenyl-5S-[N-(2-quinolinecarbonyl)-β-methanesulfonyl-L-valinyl]amino-(4R,3S)-epoxy-6-phenylhexanesulfonamide] | 8.30 | > 10000 | 1.67e+07 to 1.67e+08 |
| CCN(c1ccccc1)S(=O)(=O)CC[C@@H]1O[C@@H]1[C@H](Cc1ccccc1)NC(=O)[C@H](CC(N)=O)NC(=O)c1ccc2ccccc2n1 [Ex. 7, N-ethyl-N-phenyl-5S-[N-(2-quinolinecarbonyl)-L-asparaginyl]amino-(4R,3S)-epoxy-6-phenylhexanesulfonaimide] | 7.70 | > 10000 | 1.67e+07 to 1.67e+08 |
| CCN(C(C)C)S(=O)(=O)CC[C@@H]1O[C@@H]1[C@H](Cc1ccccc1)NC(=O)[C@@H](NC(=O)c1ccc2ccccc2n1)C(C)(C)S(C)(=O)=O [Ex. 8, N-ethyl-N-isopropyl-5S-[N-(2-quinolinecarbonyl)-β-methanesulfonyl-L-valinyl]amino-(4R,3S)-epoxy-6-phenylhexanesulfonamide] | 8.00 | > 10000 | 1.67e+07 to 1.67e+08 |
| CC(C)C(NS(=O)(=O)CC[C@@H]1O[C@@H]1[C@H](Cc1ccccc1)NC(=O)[C@@H](NC(=O)OCc1ccccc1)C(C)(C)S(C)(=O)=O)C(C)C [Ex. 9, N-(2,4-dimethyl-3-pentyl)-5S-[N-(2-benzyloxycarbonyl)-β-methanesulfonyl-L-valinyl]amino-(4R,3S)-epoxy-6-phenylhexanesulfonamide] | 8.00 | > 10000 | 1.67e+07 to 1.67e+08 |

— EP0812857A1, “Irreversible HIV protease inhibitors, compositions containing same and process for the preparation thereof” (LG Chemical Limited, priority 1996, dated 1997)
